# Legend:
# [1] = tested on: ReNcell VM cells; experiment: Immunocytochemistry of Tubb3 / MAP2 protein expression in 4-week differentiated ReNcell VM; type: cell-based, human
# Description: FIG. 15. Tubb3 Expression Analysis for 4-Week Differentiated ReNcell VM Cells. ReNcell VM cells were treated with neural stem cell culture medium (control), RA (retinoic acid), RA-PepB, C16-PepB, LiCl, and IFNγ (interferon gamma). Tubb3 proteins expressed in the cells were stained as green and cell nuclei were stained with blue (DAPI).
# FIG. 16. MAP2 Expression Analysis for 4-Week Differentiated ReNcell VM Cells. ReNcell VM treated with cell culture media (control), RA, RA-PepB, C16-PepB, LiCl, and IFNγ (interferon gamma). MAP2 proteins expressed in the cells were stained as green and cell nuclei were stained with blue (DAPI) FIG. 17. Quantitation of Immunocytochemistry Results for Tubb3/MAP2 Proteins. Relative numbers of the cells expressing Tubb3 and MAP2 proteins were counted and normalized to the control group (*P<0.05, **P<0.01).
# The proteins expressed in ReNcell VM cells were visualized with antibodies to study the protein expression by the differentiation of the stem cells in the presence of various soluble factors including RA-PepB and C16-PepB. […] As is shown in FIGS. 15 and 16, Tubb3 or MAP2 expression levels in 4-week differentiated ReNcell VM cells were evaluated via immunocytochemistry (ICC). Protein expression, after antibody staining, was visualized and quantitatively compared by counting Tubb3 or MAP2-positive cells. […]
# [2] = tested on: ReNcell VM; experiment: RT-qPCR analysis of neural marker gene expression in differentiated ReNcell VM; type: cell-based, human
# Description: Differentiated stem cells were cultured for 10 weeks.
# The statistical significance was evaluated compared to the control (differentiated ReNcell VM without chemicals) *P<0.05, **P<0.01. GAPDH served as control.
# Total mRNA was extracted using mRNA isolation kit (Ambion, Life Technologies) according to the manufacturer's protocol. For higher yield, neural stem cells from eight wells in the same culture plate were homogenized in cell lysis buffer.
# Concentrations of mRNA samples were evaluated based on OD260/OD280. mRNA samples were reverse transcribed using reverse transcription kit (Applied Biosystems). PCR amplification of cDNA was carried out using universal PCR master mix (Applied Biosystems) and gene-specific primer sets (Applied Biosystems). These primers included neural stem cell (Nestin, SOX2), immature neuron (Tubb3), mature neuron (MAP2), and astrocyte (GFAP) specific genes. GAPDH was used as a control (house keeping gene). The cycles for RT-PCR consisted of 1 second denaturation at 95° C., 20 second annealing at 60° C. RT-PCR products were analyzed using Mastercycler ep realplex 4 (Eppendorf).
# [3] = tested on: HEK293 cells; experiment: Live-cell / confocal uptake of ROX-labeled PepA derivatives in HEK293; type: cell-based; details: HEK293 cultures; ROX dye label
# Excerpt: FIG. 9 is a series of images depicting live-cell uptake of bioactive peptide A (PepA) labeled with the ROX Dye. Bioconjugation with palmitic acid (C16 tail) and/or CPP AAAAEK (PepX) attachments increased cellular uptake in HEK293 cultures.
# FIG. 11 is a series of images depicting laser-scanning confocal microscope imaging of bioactive peptide A (PepA) labeled with the ROX dye. Bioconjugation with palmitic acid (C16 tail) and/or CPP AAAAEK (PepX) attachments increased cellular uptake in HEK293 cultures.
# Bioactive (model) peptide A (PepA) and CPP X (PepX) were synthesized via solid phase peptide synthesis (SPPS) methods (Suh et al., 2001 Comprehen. Biomat 4: 219-245; Suh et al., 2013 Polymer Adhesion, Friction and Lubrication 283-317 (Wiley)). Fmoc-deprotection was performed with organic bases such as 4-methyl piperidine and DBU in DMF at room temperature. Coupling reaction was performed in the presence of Fmoc-protected amino acids with the mixture of coupling reagents and organic bases (e.g., HBTU, HOBt and DIEA). The cleaved peptide from the resin was purified by HPLC, collected, and stored for future uses. HEK293 and ReNcell VM cell lines were maintained and utilized for cellular experiments. Live-Cell imaging analysis was performed on an Olympus IX81 and IX83-DSU wide-field spinning disc confocal microscope equipped with an LCI Chamlide stage-top incubator unit. […]
molecule,measurement,setting,value
"[Cl-].[Li+] [LiCl, lithium chloride]","Tubb3 expression compared to the control (ICC, positive cell count)",[1],statistically significant increases
"CC1=C(/C=C/C(C)=C/C=C/C(C)=C/C(=O)O)C(C)(C)CCC1 [RA, Retinoic acid]",cytotoxicity in differentiation culture (FIG. 6),[2]; differentiated stem cells cultured for 10 weeks,Highly cytotoxic; low cell count among results
AAAAEK(A) [PepB],live-cell uptake (FIG. 9),[3],increased cellular uptake of multiple peptides in a synergistic manner
same,neuronal differentiation by qRT-PCR (FIGS. 12 and 13),"[2]; 1 to 4 weeks of differentiation, GAPDH control",increased neuronal differentiations
